How the values were obtained:
[1] = test system: powdery mildew fungus (Blumeria graminis); test: Test Example 2: controlling effect by seed dressing against wheat powdery mildew, long-lasting effect; format: in vivo; details: 0.15% active ingredient based on weight of dry seeds, inoculated 50 days after sowing, investigated 7 days after inoculation
Text: (§1) Seeds of wheat (cultivar: chihoku komugi) and a wettable powder prepared according to Formulation Example were placed in a vinyl bag, followed by adding thereto a small volume of water, and they were mixed to conduct seed dressing. On the day after this treatment, the seeds sowed in a plastic pot of 10 cm diameter, and cultivated in a greenhouse. Twenty five days after sowing, the seedlings thus obtained were inoculated with powdery mildew fungus (Blumeria graminis) by sprinkling. Seven days after inoculation, the seedlings were investigated and infection index was estimated according to the criterion shown below, after which the control efficacy (%) was calculated. In this occasion, infection index on the untreated plot was 8.0. As comparative examples, the following compounds described in JP-A-2001-10909 were evaluated. • I: 3′-chloro-4,4′-dimethyl-1,2,3-thiadiazole-5-carboxanilide • II: benzyl 4-isopropyl-1,2,3-thiadiazole-5-carboxylate • III: methyl 4-cyclopropyl-1,2,3-thiadiazole-5-carboxylate • IV: 4-cyclopropyl-1,2,3-thiadiazole-5-carboxylic acid Infection Index • 0: No infection. • 0.5: Lesion area percentage: less than 10% • 1: Lesion area percentage; 10 to less than 20% • 2: Lesion area percentage; 20 to less than 30% • 3: Lesion area percentage; 30 to less than 40% • 4: Lesion area percentage; 40 to less than 50% • 5: Lesion area percentage; 50 to less than 60% • 6: Lesion area percentage; 60 to less than 70% • 7: Lesion area percentage; 70 to less than 80% • 8: Lesion area percentage; 80 to less than 90% • 9: Lesion area percentage; 90 to less than 100% • 10: Lesion area percentage; 100% Control efficacy (%)={1-(infection index on treated plot/infection index on untreated plot)}×100 Rank of Control Efficacy • A: Control efficacy 100-90% • B: Control efficacy 89-80% • C: Control efficacy 79-60% • D: Control efficacy 59-0%
Seeds of wheat (cultivar: Chihoku Komugi) and a wettable powder prepared according to Formulation Example were placed in a vinyl bag, followed by adding thereto a small volume of water, and they were mixed to conduct seed dressing. On the day after this treatment, the seeds sowed in a plastic pot of 10 cm diameter, and cultivated in a greenhouse. Fifty days after sowing, the seedlings thus obtained were inoculated with powdery mildew fungus (Blumeria graminis) by sprinkling. Seven days after inoculation, the seedlings were investigated and infection index was estimated according to the criterion shown below, after which the control efficacy (%) was calculated. In this occasion, infection index on the untreated plot was 8.0. As comparative examples, the above-described compounds I, II, III and IV were evaluated.

[2] = test system: wheat (cultivar: Chihoku Komugi); test: Test Example 3: phytotoxicity for wheat by treatment of seeds (safety test on plant); format: in vivo; details: wheat seed dressing, 0.15% active ingredient based on weight of dry seeds; 7 and 14 days after sowing
Procedure: Seeds of wheat (cultivar: Chihoku Komugi) and a wettable powder prepared according to Formulation Example were placed in a vinyl bag, followed by adding thereto a small volume of water, and they were mixed to conduct seed dressing. On the day after this treatment, the seeds sowed in a plastic pot of 10 cm diameter, and cultivated in a greenhouse. Seven days and fourteen days after sowing, phytotoxicity for germination of the seeds and growth at the early stage were evaluated.

[3] = test system: powdery mildew fungus (Blumeria graminis); test: Test Example 1: controlling effect by seed dressing against wheat powdery mildew; format: in vivo; details: 0.15% active ingredient based on weight of dry seeds, inoculated 25 days after sowing, investigated 7 days after inoculation
Text: as §1

| SMILES | Rank of control efficacy [1] | phytotoxicity for germination of the seeds and growth at the early stage [2] | melting point [°C] | Rank of control efficacy [3] |
| --- | --- | --- | --- | --- |
| O=C(O)c1snnc1C1CC1 [Comparative compound IV, 4-cyclopropyl-1,2,3-thiadiazole-5-carboxylic acid] | B (Control efficacy 89-80%) | delay germination and suppressed growth | 158 to 159 |  |
| CC(C)(C)c1ccc(CNC(=O)c2snnc2C2CC2)cc1 [1-63] |  | absolutely no phytotoxicity |  | B or more |
| COc1ccc(NC(=O)c2snnc2C2CC2)c(OC)c1 [1-96] |  | absolutely no phytotoxicity |  | B or more |
| CCCCCCCCOC(=O)c1snnc1C1CC1 [1-8] |  | absolutely no phytotoxicity |  | B or more |
| O=C(NS(=O)(=O)c1ccccc1)c1snnc1C1CC1 [1-121] |  | absolutely no phytotoxicity |  | B or more |
| COC(=O)c1ccc(COC(=O)c2snnc2C2CC2)cc1 [1-24] |  | absolutely no phytotoxicity |  | B or more |
| CC(OC(=O)c1snnc1C1CC1)c1ccc(Cl)cc1 (stereo not shown) [1-44] |  | absolutely no phytotoxicity |  | B or more |
| O=C(OCc1ccc(Cl)cc1)c1snnc1C1CC1 [1-12] |  | absolutely no phytotoxicity |  | B or more |
| O=C(NCc1ccccc1)c1snnc1C1CC1 [1-53] |  | absolutely no phytotoxicity |  | B or more |
| O=C(OCc1cccc(Cl)c1)c1snnc1C1CC1 [1-11] |  | absolutely no phytotoxicity |  | B or more |
| CC(C)Cc1csc(NC(=O)c2snnc2C2CC2)n1 [1-110] |  | absolutely no phytotoxicity |  | B or more |
| COc1ccc(CNC(=O)c2snnc2C2CC2)cc1OC [1-166] |  | absolutely no phytotoxicity |  | B or more |
| N#Cc1ccccc1NC(=O)c1snnc1C1CC1 [1-100, 2′-cyano-4-cyclopropyl-1,2,3-thiadiazole-5-carboxanilide] |  |  | 124 |  |
| O=C(OCc1cc(Cl)cc(Cl)c1)c1snnc1C1CC1 [1-30] |  | absolutely no phytotoxicity |  | B or more |
| COC(=O)c1snnc1C1CC1 [III, methyl 4-cyclopropyl-1,2,3-thiadiazole-5-carboxylate] |  |  | 47 |  |
| Cc1ccc(NC(=O)c2snnc2C2CC2)cc1Cl [1-95, 3′-chloro-4-cyclopropyl-4′-methyl-1,2,3-thiadiazole-5-carboxanilide] |  | absolutely no phytotoxicity | 150 to 153 | B or more |
| O=C(O)c1ccccc1NC(=O)c1snnc1C1CC1 [1-98, 2-(4-cyclopropyl-1,2,3-thiadiazol-5-ylcarbonylamino)benzoic acid] |  | absolutely no phytotoxicity |  | B or more |
